# Assay results: patent US10555987B2, “GHRH agonists for the treatment of ischemic disorders” (UNIVERSITY OF MIAMI, priority 2012, dated 2020)
# Non-standard residues stand in square brackets, D forms with d. Residues, ends and D or L forms follow the SMILES beside them. *: point of attachment. Desaminotyrosyl = O=C(CCc1ccc(O)cc1)*; Nle = CCCC[C@H](N)C(=O)O; Orn = NCCC[C@H](N)C(=O)O; Abu = CC[C@H](N)C(=O)O; GABA = NCCCC(=O)O
# How the values were obtained:
# GHRH receptor [1] = biological target: T1, GHRH receptor (Homo sapiens, UniProt Q02643); experiment: GHRH receptor binding, competition with 125I-labeled JV-1-42, human pituitary membrane homogenates (Table 5); parameters: Normal human pituitaries were purchased from the National Hormone and Peptide Program; tissue National Hormone and Peptide Program (A.F. Parlow, Harbor-UCLA Medical Center, Torrance, Calif.); host or cells: normal human pituitary, membrane fraction
# T1 sequence (Q02643 23-423): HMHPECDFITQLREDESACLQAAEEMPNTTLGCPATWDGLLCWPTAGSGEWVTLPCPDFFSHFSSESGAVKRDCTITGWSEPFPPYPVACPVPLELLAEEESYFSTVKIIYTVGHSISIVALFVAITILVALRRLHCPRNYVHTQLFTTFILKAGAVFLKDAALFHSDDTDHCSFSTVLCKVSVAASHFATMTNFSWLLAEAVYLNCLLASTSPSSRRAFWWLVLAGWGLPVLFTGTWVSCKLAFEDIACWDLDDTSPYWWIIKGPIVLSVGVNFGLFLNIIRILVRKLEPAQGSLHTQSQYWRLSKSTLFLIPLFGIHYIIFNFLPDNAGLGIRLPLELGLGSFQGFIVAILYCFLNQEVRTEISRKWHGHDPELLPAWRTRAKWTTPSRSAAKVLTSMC
# Protocol: Normal human pituitaries were purchased from the National Hormone and Peptide Program (A.F. Parlow, Los Angeles, County Harbor-UCLA Medical Center, Torrance, Calif.). Briefly, in competitive binding analysis, ^125I-labeled JV-1-42 ([…]) was displaced by GHRH agonists at 10^−6 to 10^−12 M.
# The final binding affinities were expressed as IC50 values and were calculated by using the LIGAND PC computerized curve-fitting program of Munson and Rodbard as modified by McPherson.
# GH release [2] = experiment: GH releasing potency in vivo, subcutaneous administration (Example 14, Table 12); parameters: species or system rat; conditions: s.c.
# Method in brief: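 Potency is expressed relative to GHRH(1-29)NH2 and JI-38 (each = 1), via equivalent GHRH(1-29)NH2 dose read from a standard curve. Peptides in 5% mannitol given i.v. or s.c. to anaesthetised male Sprague-Dawley rats (200-250 g); serum GH measured by ELISA at selected times.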
# GH release [3] = experiment: In vivo endocrine activity, GH release after subcutaneous administration (Table 9); conditions: rat, subcutaneous (s.c.) injection
# Protocol: Subcutaneous Administration. Adult male rats were used and anesthetized with pentobarbital (6 mg/100 g, b.w.), by i.p. injection. […] Blood samples were taken from the jugular vein 5, 15 and/or 30 minutes after the injection. The blood samples were centrifuged, plasma was removed and the GH level was measured byELISA. The results are summarized in terms of potency in Table 9.
# GHRH receptor [4] = biological target: T1, GHRH receptor; experiment: Receptor binding in vitro, 125I-labeled [His1,Nle27]-hGHRH(1-32)NH2, membrane receptors of human anterior pituitary cells (Table 14)
# Text: Normal human pituitary was purchased from the National Hormone and Peptide Program (UCLA Medical Center, Torrance, Calif.).
# GH release [5] = experiment: In vivo endocrine activity, GH release after intravenous administration (Table 8); conditions: rat, i.v. injection
# GH release [6] = experiment: GH releasing potency in vivo, intravenous administration (Example 14, Table 13); parameters: species or system rat; conditions: i.v.
# Protocol: Male Sprague-Dawley rats, weighing 200-250 g, were purchased from Charles River Laboratory (Wilmington, Mass.) and used for experiments. All animal procedures were approved by the Veterans Affairs Animal Care and Use Committee and were conducted in accordance with additional institutional guidelines as well. Briefly, groups of 5-6 animals were used in each experiment. The rats were anesthetized with 50 mg/kg of sodium pentobarbital (Nembutal, Lundbeck Inc., Deerfield, Ill.). Twenty min after inducing anesthesia, GHRH(1-29)NH2, JI-38, or new analogs were injected into the animals intravenously (i.v.) or subcutaneously (s.c.). The peptides were dissolved in 0.01 M acetic acid to get 1 μg/μl stock solution, and then diluted with 5% mannitol. Control rats received 5% mannitol only. Blood samples were collected from the jugular vein at selected times and were used for serum preparation. Concentrations of GH in rat sera were determined by ELISA. The relative potencies of tested peptides were calculated using GHRH(1-29)NH2 and JI-38 for comparison, whose potency was defined as 1. The equivalent dosage of GHRH(1-29)NH2 to reach the same level of serum growth hormone release after injection of the specific tested peptide was determined from a GHRH(1-29)NH2 standard curve using Origin 6.0 software. […] Serum GH was determined using the rat Growth Hormone ELISA kit (ALPCO Diagnostics, Mill Valley, Calif.) according to the manufacturer's instruction. Absorbance at 405 nm was measured by a Victor 3 Multi-label Counter (Perkin-Elmer, Waltham, Md.).
# GHRH receptor [7] = biological target: T1, GHRH receptor; experiment: GHRH receptor binding, competition with 125I-labeled JV-1-42, human pituitary membrane homogenates (Table 7); parameters: Normal human pituitaries were purchased from the National Hormone and Peptide Program; tissue National Hormone and Peptide Program (A.F. Parlow, Harbor-UCLA Medical Center, Torrance, Calif.); host or cells: normal human pituitary, membrane fraction; conditions: JI-38 = 1, Table 7
# Text: Normal human pituitaries were purchased from the National Hormone and Peptide Program (A.F. Parlow, Los Angeles, County Harbor-UCLA Medical Center, Torrance, Calif.).
structure (smiles),measurement,setting,value
"CCCC[C@H](NC(=O)[C@@H](NC(=O)[C@H](CC(=O)O)NC(=O)[C@H](CCC(N)=O)NC(=O)[C@H](CC(C)C)NC(=O)[C@H](CC(C)C)NC(=O)[C@H](CCCN)NC(=O)[C@H](CCCNC(=N)N)NC(=O)[C@H](C)NC(=O)[C@H](CO)NC(=O)[C@H](CC(C)C)NC(=O)[C@H](CCC(N)=O)NC(=O)[C@H](CC)NC(=O)[C@H](CC(C)C)NC(=O)[C@@H](NC(=O)[C@H](CCCN)NC(=O)[C@H](CCCNC(=N)N)NC(=O)[C@H](Cc1ccc(O)cc1)NC(=O)[C@H](CO)NC(=O)[C@H](CC(N)=O)NC(=O)[C@@H](NC(=O)[C@H](Cc1ccccc1)NC(=O)[C@@H](NC(=O)[C@H](C)NC(=O)[C@H](CC(=O)O)NC(=O)[C@@H](C)NC(=O)CCc1ccc(O)cc1)[C@@H](C)CC)[C@@H](C)O)C(C)C)[C@@H](C)CC)C(=O)N[C@@H](CO)C(=O)N[C@@H](CCCNC(=N)N)C(=O)N[C@@H](CCC(N)=O)C(=O)NCCCC(N)=O [Peptide P-29702, [Dat^1, D-Ala^2, Orn^12, Abu^15, Orn^21, Nle^27, Gln-Gab^30]hGHRH(1-30)NH2] (Desaminotyrosyl-[dA]DAIFTNSYR[Orn]VL[Abu]QLSAR[Orn]LLQDI[Nle]SRQ[GABA]-NH2)",Relative affinity (Binding potency) vs GHRH,"GHRH receptor [1]; GHRH(1-29) = 1, Table 5",81.2
same,Relative affinity (Binding potency) vs JI-38,"GHRH receptor [1]; JI-38 = 1, Table 5",34.2
same,"Serum GH level at selected time after injection (ng/ml), 0 min","GH release [2]; male rats, dose 3 μg/kg, 0 min, mean ± SEM",43.7 ± 5^ ng/ml
same,"Serum GH level at selected time after injection (ng/ml), 15 min","GH release [2]; male rats, dose 3 μg/kg, 15 min, mean ± SEM",103.7 ± 23.1 ng/mL
same,"Serum GH level at selected time after injection (ng/ml), 30 min","GH release [2]; male rats, dose 3 μg/kg, 30 min, mean ± SEM",85 ± 27.8 ng/mL
same,"Relative potency compared to GHRH(1-29), 15 min",GH release [2]; 15 min,22.4
same,"Relative potency compared to JI-38, 15 min",GH release [2]; 15 min,0.35
same,"Relative potency compared to GHRH(1-29), 30 min",GH release [2]; 30 min,53.5
same,"Relative potency compared to JI-38, 30 min",GH release [2]; 30 min,0.48
same,GH releasing potency relative to JI-38 (=1),GH release [3]; 15 min after,0.53
same,GH releasing potency relative to JI-38 (=1),GH release [3]; 30 min after,0.73
same,Relative affinity (Binding potency) compared to JI-38,GHRH receptor [4]; JI-38 = 1,0.83
same,Relative affinity (Binding potency) compared to hGHRH(1-29),GHRH receptor [4]; hGHRH(1-29)NH2 = 1,2.31
same,GH releasing potency in vivo relative to JI-38 (=1),GH release [5]; 5 min after,0.98
same,GH releasing potency in vivo relative to JI-38 (=1),GH release [5]; 15 min after,0.99
same,GH releasing potency in vivo relative to JI-38 (=1),GH release [5]; 30 min after,1.22
same,"Relative potency, 5 min","GH release [6]; 5 min, JI-38 = 1",1.07
same,"Relative potency, 15 min","GH release [6]; 15 min, JI-38 = 1",1.38
same,"Serum GH level at selected time after injection (ng/ml), 0 min","GH release [6]; dose 1 μg/kg, 0 min, mean ± SEM",47.7 ± 3.4 ng/mL
same,"Serum GH level at selected time after injection (ng/ml), 5 min","GH release [6]; dose 1 μg/kg, 5 min, mean ± SEM",578 ± 87.7 ng/mL
same,"Serum GH level at selected time after injection (ng/ml), 15 min","GH release [6]; dose 1 μg/kg, 15 min, mean ± SEM",273 ± 40.8 ng/mL
same,Relative affinity (Binding potency) vs JI-38,GHRH receptor [7],5.06
